Among the data in publication doi:10.1101/2023.12.04.569845, “Identification of 4-(6-((2-methoxyphenyl)amino)pyrazin-2-yl)benzoic acids as CSNK2A inhibitors with antiviral activity and improved selectivity over PIM3” (bioRxiv, 2023) are ΔTm values, retold here.

Among the targets are WNK1 (Homo sapiens, UniProt Q9H4A3); FGFR2 (Homo sapiens, UniProt P21802); AURKB (Homo sapiens, UniProt Q96GD4).
What all share (assay): biochemical
Holding throughout (parameters): Thermal shift (DSF, SYPRO Orange) Tm shift of recombinant kinase domains at 10 uM compound

The target in the next experiment is T1, AurA (Homo sapiens, UniProt O14965).
T1 construct: gene AURKA
T1 sequence (O14965 1-403): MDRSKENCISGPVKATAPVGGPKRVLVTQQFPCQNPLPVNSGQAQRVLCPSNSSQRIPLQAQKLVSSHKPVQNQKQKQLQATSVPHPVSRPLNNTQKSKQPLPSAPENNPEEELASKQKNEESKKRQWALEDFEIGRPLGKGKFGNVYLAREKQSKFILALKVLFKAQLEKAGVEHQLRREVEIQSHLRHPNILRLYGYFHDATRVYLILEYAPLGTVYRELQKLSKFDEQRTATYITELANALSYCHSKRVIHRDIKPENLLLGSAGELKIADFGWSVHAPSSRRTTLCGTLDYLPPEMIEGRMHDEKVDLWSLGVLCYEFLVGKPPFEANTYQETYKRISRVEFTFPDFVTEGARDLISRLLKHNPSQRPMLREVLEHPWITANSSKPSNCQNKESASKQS

The target in a further experiment is T2, NEK1 (Homo sapiens, UniProt Q96PY6).
T2 sequence (Q96PY6 1-1258): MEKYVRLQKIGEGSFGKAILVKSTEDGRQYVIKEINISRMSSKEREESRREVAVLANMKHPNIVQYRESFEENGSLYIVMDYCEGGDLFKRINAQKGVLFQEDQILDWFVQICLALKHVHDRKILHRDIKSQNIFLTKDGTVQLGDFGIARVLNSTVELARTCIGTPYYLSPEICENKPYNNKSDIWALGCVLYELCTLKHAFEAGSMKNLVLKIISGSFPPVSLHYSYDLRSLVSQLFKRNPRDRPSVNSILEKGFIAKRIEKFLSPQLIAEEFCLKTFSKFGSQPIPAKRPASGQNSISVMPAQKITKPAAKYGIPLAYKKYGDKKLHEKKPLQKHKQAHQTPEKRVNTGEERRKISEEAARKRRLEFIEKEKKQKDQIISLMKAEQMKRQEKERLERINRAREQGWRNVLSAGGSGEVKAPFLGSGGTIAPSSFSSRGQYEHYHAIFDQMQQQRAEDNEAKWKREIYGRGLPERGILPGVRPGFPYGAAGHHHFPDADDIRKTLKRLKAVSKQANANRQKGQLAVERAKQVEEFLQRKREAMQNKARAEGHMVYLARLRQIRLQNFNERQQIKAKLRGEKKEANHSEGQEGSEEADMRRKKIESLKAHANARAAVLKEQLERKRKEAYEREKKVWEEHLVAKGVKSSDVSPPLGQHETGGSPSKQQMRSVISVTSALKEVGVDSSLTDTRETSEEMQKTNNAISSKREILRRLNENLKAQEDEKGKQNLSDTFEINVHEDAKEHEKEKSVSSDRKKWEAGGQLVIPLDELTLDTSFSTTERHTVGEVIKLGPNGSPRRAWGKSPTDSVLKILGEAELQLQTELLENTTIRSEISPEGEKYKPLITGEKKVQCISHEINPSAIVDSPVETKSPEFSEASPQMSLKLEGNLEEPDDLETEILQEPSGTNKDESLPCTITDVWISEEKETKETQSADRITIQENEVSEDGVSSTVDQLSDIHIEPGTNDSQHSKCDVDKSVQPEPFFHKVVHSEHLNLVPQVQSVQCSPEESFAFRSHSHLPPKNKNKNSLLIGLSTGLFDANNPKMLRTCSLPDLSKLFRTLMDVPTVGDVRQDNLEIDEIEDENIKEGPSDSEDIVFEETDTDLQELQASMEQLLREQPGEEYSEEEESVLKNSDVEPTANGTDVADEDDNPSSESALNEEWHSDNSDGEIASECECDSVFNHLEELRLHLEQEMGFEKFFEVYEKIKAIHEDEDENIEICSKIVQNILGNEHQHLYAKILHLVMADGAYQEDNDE

The target in a further experiment is T3, DRAK1 (Homo sapiens, UniProt Q9UEE5).
T3 construct: gene STK17A
T3 sequence (Q9UEE5 1-414): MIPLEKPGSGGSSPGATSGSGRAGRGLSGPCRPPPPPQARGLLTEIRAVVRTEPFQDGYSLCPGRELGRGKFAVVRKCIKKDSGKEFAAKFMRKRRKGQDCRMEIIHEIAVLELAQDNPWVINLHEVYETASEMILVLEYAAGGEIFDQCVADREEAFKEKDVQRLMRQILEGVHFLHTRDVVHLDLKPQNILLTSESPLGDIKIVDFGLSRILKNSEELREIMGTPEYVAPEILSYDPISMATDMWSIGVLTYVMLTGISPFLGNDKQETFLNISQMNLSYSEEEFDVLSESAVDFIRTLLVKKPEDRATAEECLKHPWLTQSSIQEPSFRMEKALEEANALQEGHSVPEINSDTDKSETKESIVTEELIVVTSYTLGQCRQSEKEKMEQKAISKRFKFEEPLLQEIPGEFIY

Read-outs that look alike come from different tables or passages of the source.

Chain of FGFR2 (P21802 whole entry): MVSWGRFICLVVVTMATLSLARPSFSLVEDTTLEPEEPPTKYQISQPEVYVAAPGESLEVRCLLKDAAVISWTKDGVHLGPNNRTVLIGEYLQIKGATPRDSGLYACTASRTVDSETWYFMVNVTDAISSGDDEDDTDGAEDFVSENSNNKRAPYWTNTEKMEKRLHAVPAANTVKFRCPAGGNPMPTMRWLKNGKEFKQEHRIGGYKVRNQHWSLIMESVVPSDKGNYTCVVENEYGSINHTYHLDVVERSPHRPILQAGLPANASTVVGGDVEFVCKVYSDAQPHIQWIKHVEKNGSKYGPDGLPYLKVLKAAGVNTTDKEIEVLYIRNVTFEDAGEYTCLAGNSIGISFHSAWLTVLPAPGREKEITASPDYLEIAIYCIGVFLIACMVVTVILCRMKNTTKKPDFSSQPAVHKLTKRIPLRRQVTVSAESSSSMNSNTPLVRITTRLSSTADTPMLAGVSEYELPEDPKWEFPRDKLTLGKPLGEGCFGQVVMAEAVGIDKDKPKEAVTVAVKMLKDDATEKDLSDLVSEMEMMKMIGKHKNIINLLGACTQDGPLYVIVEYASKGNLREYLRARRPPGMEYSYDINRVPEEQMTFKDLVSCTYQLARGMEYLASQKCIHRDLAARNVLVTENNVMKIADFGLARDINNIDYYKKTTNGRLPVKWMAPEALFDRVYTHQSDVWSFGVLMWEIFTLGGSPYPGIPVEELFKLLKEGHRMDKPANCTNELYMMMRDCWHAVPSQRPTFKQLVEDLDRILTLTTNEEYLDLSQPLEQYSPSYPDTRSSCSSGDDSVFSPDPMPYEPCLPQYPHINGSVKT
Chain of AURKB (Q96GD4 whole entry): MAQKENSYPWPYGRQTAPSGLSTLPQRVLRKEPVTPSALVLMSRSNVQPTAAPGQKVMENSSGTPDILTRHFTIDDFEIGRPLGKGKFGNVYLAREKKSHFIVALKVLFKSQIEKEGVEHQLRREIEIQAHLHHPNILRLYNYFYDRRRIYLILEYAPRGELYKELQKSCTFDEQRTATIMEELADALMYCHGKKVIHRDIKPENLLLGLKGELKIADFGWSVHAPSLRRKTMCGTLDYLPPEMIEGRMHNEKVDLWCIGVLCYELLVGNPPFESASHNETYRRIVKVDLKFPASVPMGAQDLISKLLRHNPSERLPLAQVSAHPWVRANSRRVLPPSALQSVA
Chain of WNK1 (Q9H4A3 whole entry): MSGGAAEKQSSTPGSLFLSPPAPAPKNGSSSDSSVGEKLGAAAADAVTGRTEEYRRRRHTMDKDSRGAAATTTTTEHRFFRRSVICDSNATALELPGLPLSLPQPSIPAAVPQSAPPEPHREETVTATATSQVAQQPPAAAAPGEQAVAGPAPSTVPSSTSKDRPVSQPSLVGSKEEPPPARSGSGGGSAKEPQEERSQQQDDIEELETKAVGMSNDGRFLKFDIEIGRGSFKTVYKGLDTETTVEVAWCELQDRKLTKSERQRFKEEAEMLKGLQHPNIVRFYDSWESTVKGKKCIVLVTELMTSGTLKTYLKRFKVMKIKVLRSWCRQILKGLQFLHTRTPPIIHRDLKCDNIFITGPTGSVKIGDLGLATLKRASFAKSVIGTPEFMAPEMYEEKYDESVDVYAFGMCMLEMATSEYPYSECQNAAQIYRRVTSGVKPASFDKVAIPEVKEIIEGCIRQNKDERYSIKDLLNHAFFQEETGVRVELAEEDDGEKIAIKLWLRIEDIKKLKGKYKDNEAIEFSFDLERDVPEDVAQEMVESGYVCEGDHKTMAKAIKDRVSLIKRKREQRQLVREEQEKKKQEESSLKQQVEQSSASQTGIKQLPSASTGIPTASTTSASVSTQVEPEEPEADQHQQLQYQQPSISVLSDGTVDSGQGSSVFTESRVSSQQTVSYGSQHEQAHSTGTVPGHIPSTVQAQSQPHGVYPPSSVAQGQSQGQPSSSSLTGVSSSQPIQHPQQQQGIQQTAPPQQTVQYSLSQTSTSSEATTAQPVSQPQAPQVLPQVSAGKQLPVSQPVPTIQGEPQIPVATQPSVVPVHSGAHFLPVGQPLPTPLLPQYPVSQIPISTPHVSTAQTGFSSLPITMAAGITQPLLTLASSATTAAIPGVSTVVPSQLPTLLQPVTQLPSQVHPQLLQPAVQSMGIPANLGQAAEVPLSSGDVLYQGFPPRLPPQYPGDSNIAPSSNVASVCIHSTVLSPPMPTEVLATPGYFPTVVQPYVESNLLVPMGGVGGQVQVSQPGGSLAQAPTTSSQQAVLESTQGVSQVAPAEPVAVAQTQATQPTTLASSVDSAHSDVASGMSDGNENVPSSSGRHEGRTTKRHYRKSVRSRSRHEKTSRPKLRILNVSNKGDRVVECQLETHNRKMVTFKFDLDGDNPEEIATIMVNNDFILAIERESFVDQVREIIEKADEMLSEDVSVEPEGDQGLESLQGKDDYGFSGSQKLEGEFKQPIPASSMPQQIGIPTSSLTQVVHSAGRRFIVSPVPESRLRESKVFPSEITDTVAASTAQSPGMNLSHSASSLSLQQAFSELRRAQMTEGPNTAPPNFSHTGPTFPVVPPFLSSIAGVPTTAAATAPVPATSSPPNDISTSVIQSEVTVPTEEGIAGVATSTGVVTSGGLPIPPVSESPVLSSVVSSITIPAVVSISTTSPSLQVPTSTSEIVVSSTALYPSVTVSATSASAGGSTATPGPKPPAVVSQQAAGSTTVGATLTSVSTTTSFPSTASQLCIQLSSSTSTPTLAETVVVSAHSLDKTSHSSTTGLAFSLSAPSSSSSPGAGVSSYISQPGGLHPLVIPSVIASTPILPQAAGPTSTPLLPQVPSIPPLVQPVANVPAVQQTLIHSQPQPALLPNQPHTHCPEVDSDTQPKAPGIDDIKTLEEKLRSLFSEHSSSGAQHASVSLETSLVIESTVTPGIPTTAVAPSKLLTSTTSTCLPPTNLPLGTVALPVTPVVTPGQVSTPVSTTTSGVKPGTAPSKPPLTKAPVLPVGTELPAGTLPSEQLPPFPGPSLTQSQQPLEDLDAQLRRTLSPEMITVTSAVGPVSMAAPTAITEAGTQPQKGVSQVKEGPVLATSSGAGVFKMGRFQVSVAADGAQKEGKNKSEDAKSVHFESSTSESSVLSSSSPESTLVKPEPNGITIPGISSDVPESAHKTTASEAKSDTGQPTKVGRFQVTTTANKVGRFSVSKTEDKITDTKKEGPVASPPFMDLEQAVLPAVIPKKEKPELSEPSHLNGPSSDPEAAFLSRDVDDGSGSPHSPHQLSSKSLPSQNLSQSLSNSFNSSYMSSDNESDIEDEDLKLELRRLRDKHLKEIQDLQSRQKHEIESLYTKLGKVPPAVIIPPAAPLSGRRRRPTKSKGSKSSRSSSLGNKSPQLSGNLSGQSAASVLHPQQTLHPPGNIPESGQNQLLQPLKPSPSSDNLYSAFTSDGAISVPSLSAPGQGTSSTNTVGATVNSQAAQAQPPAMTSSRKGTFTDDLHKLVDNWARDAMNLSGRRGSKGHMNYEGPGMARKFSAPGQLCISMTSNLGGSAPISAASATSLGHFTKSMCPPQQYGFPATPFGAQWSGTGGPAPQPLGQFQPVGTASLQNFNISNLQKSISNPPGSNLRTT

Turning to `CC(C)Oc1ccc2ccn(-c3cncc(-c4ccc(C(=O)O)cc4)n3)c2c1` [6c], the ΔTm at 10 µM amounted to 8 °C at AurA (read-out: 6c); 0 °C on NEK1 (read-out: 6c); 2 °C at WNK1 (read-out: 6c); 0 °C on FGFR2 (read-out: 6c); 4 °C at AURKB (read-out: 6c); 6 °C on DRAK1 (read-out: 6c).

As to `COc1ccc(OC(C)C)cc1Nc1cncc(-c2ccc(C(=O)O)cc2)n1` [7c], the ΔTm at 10 µM on AurA (read-out: 7c) came to 4 °C; on NEK1 (read-out: 7c) it was 0 °C; on WNK1 (read-out: 7c) it was 0 °C; on FGFR2 (read-out: 7c), 0 °C; on AURKB (read-out: 7c), 2 °C; at DRAK1 (read-out: 7c), 4 °C.

With `CC(C)Nc1ccc2cnn(-c3cncc(-c4ccc(C(=O)O)cc4)n3)c2c1` [compound 2, 2], the ΔTm at 10 µM on AurA (read-out: 2) came out at 10 °C; on NEK1 (read-out: 2), 1 °C; on WNK1 (read-out: 2), 1 °C; on FGFR2 (read-out: 2) it was 0 °C; on AURKB (read-out: 2), 4 °C; on DRAK1 (read-out: 2) it was 8 °C.
